Laboratory results reported in paper PMC12147132 (2025).

How the values were obtained:
[1] = test system: AD-aptamer subunits L1F + L2Q (DNA, aptamer) ATAACGCATTTTGTTATGCGGAGGAAGGTAT/AATGCGTTATTAGAATT/ATACCTGGGGGAGTATTAACATGTTCCATCTT/TTAAATCAAGATGGAAC; assay: not given in the source (Figure S2)
[2] = test system: AD-aptamer subunits L1F + L2Q (DNA, aptamer) ATAACGCATTTTGTTATGCGGAGGAAGGTAT/AATGCGTTATTAGAATT/ATACCTGGGGGAGTATTAACATGTTCCATCTT/TTAAATCAAGATGGAAC; assay: not stated in material (Figure S4)
[3] = test system: BB' (DNA, aptamer) CTGTTCAGCGATTACTATGCGGAGGAAGGTAT/ATACCTGGGGGAGTATTAGTACACCCATGTTCCTGA; assay: DNAzyme substrate cleavage fluorescence; conditions: Mg2+; qualitative; AD 4-5 mM with ADA present
[4] = test system: D1/D2 (AD-stabilized Mg2+-dependent DNAzyme; same sequences as constituent AB') (DNA, aptamer) GTCCTCAGCGATTACTATGCGGAGGAAGGTAT/ATACCTGGGGGAGTATTAGTACACCCATGTTCCTGA; assay: DNAzyme substrate cleavage fluorescence; conditions: qualitative, AD 3-5 mM with ADA present
[5] = test system: BA' (DNA, aptamer) CTGTTCAGCGATTACTATGCGGAGGAAGGTAT/ATACCTGGGGGAGTATTAGTACACCCATGTTTCAGT; assay: DNAzyme substrate cleavage fluorescence; conditions: Mg2+; qualitative; AD 4-5 mM with ADA present
[6] = test system: AA' (DNA, aptamer) GTCCTCAGCGATTACTATGCGGAGGAAGGTAT/ATACCTGGGGGAGTATTAGTACACCCATGTTTCAGT; assay: DNAzyme substrate cleavage fluorescence; conditions: Mg2+; qualitative; AD 4-5 mM with ADA present
[7] = highest concentration not in material

Row | binding [1, 7] | binding ([1]; qualitative) | Compound | also measured
1 | no |  | Cc1cn([C@H]2C[C@H](O)[C@@H](COP(=O)(O)OP(=O)(O)OP(=O)(O)O)O2)c(=O)[nH]c1=O | 
2 | no |  | O=c1ccn([C@@H]2O[C@H](COP(=O)(O)OP(=O)(O)OP(=O)(O)O)[C@@H](O)[C@H]2O)c(=O)[nH]1 | 
3 |  | yes | Nc1ncnc2c1ncn2[C@@H]1O[C@H](COP(=O)(O)O)[C@@H](O)[C@H]1O | 
4 |  | yes | Nc1ncnc2c1ncn2[C@@H]1O[C@H](COP(=O)(O)OP(=O)(O)OP(=O)(O)O)[C@@H](O)[C@H]1O | 
5 | no |  | Nc1ccn([C@@H]2O[C@H](COP(=O)(O)OP(=O)(O)OP(=O)(O)O)[C@@H](O)[C@H]2O)c(=O)n1 | 
6 | no |  | Nc1nc2c(ncn2[C@@H]2O[C@H](COP(=O)(O)OP(=O)(O)OP(=O)(O)O)[C@@H](O)[C@H]2O)c(=O)[nH]1 | 
7 |  |  | O=c1[nH]cnc2c1ncn2[C@@H]1O[C@H](CO)[C@@H](O)[C@H]1O | binding [2, 7]: no
8 |  | yes | Nc1ncnc2c1ncn2[C@@H]1O[C@H](COP(=O)(O)OP(=O)(O)O)[C@@H](O)[C@H]1O | 
9 |  |  | Nc1ncnc2c1ncn2[C@@H]1O[C@H](CO)[C@@H](O)[C@H]1O | binding [3]: yes; binding [4]: yes; Kd ([2]; not perturbed by ADA or inosine): 11.8 ± 2.3 µM; binding [5]: yes; binding [6]: yes
